PubChem BioAssay AID1259407 (Chemical Carcinogenesis Research Information System (CCRIS), 2018)
Active and inactive are the calls of the source. No rule for the calls is given here.

System: CCRIS mutagenicity, Ames/micronucleus/aberration tests
Experiment: CCRIS mutagenicity studies
[1] = Test System: AMES SALMONELLA TYPHIMURIUM, Strain/Indicator: TA98, Metabolic Activation: NONE, Method: STANDARD PLATE
[2] = Test System: AMES SALMONELLA TYPHIMURIUM, Strain/Indicator: TA98, Metabolic Activation: RAT, LIVER, S-9, AROCLOR 1254, Method: STANDARD PLATE
[3] = Test System: AMES SALMONELLA TYPHIMURIUM, Strain/Indicator: TA100, Metabolic Activation: NONE, Method: STANDARD PLATE
[4] = Test System: AMES SALMONELLA TYPHIMURIUM, Strain/Indicator: TA100, Metabolic Activation: RAT, LIVER, S-9, AROCLOR 1254, Method: STANDARD PLATE

Measured: mutagenic call

COC(=O)[C@H]1[C@H]2C[C@@H]3c4[nH]c5cc(OC)ccc5c4CCN3C[C@H]2C[C@@H](OC(=O)c2cc(OC)c(OC)c(OC)c2)[C@@H]1OC
inactive: End Point: IN VITRO CHROMOSOMAL ABERRATIONS, Test System: CHO CELLS, Metabolic Activation: NONE inactive; negative | Test System: AMES SALMONELLA TYPHIMURIUM, Strain/Indicator: TA97, Metabolic Activation: HAMSTER, LIVER, S-9, AROCLOR 1254 (10 OR 30%), Method: PREINCUBATION inactive; negative | Test System: AMES SALMONELLA TYPHIMURIUM, Strain/Indicator: TA97, Metabolic Activation: NONE, Method: PREINCUBATION inactive; negative | Test System: AMES SALMONELLA TYPHIMURIUM, Strain/Indicator: TA97, Metabolic Activation: RAT, LIVER, S-9, AROCLOR 1254 (10 OR 30%), Method: PREINCUBATION inactive; negative | Test System: AMES SALMONELLA TYPHIMURIUM, Strain/Indicator: TA98, Metabolic Activation: HAMSTER, LIVER, S-9, AROCLOR 1254 (10 OR 30%), Method: PREINCUBATION inactive; negative | Test System: AMES SALMONELLA TYPHIMURIUM, Strain/Indicator: TA98, Metabolic Activation: NONE, Method: PREINCUBATION inactive; negative | [1] inactive; negative | Test System: AMES SALMONELLA TYPHIMURIUM, Strain/Indicator: TA98, Metabolic Activation: RAT, LIVER, S-9, AROCLOR 1254 (10 OR 30%), Method: PREINCUBATION inactive; negative | [2] inactive; negative | Test System: AMES SALMONELLA TYPHIMURIUM, Strain/Indicator: TA100, Metabolic Activation: HAMSTER, LIVER, S-9, AROCLOR 1254 (10 OR 30%), Method: PREINCUBATION inactive; negative | Test System: AMES SALMONELLA TYPHIMURIUM, Strain/Indicator: TA100, Metabolic Activation: NONE, Method: PREINCUBATION inactive; negative | [3] inactive; negative | Test System: AMES SALMONELLA TYPHIMURIUM, Strain/Indicator: TA100, Metabolic Activation: RAT, LIVER, S-9, AROCLOR 1254 (10%), Method: PREINCUBATION inactive; negative | Test System: AMES SALMONELLA TYPHIMURIUM, Strain/Indicator: TA100, Metabolic Activation: RAT, LIVER, S-9, AROCLOR 1254 (30%), Method: PREINCUBATION inactive; negative | [4] inactive; negative | Test System: AMES SALMONELLA TYPHIMURIUM, Strain/Indicator: TA1535, Metabolic Activation: HAMSTER, LIVER, S-9, AROCLOR 1254 (10 OR 30%), Method: PREINCUBATION inactive; negative | Test System: AMES SALMONELLA TYPHIMURIUM, Strain/Indicator: TA1535, Metabolic Activation: NONE, Method: PREINCUBATION inactive; negative | Test System: AMES SALMONELLA TYPHIMURIUM, Strain/Indicator: TA1535, Metabolic Activation: NONE, Method: STANDARD PLATE inactive; negative | Test System: AMES SALMONELLA TYPHIMURIUM, Strain/Indicator: TA1535, Metabolic Activation: RAT, LIVER, S-9, AROCLOR 1254 (10 OR 30%), Method: PREINCUBATION inactive; negative | Test System: AMES SALMONELLA TYPHIMURIUM, Strain/Indicator: TA1535, Metabolic Activation: RAT, LIVER, S-9, AROCLOR 1254, Method: STANDARD PLATE inactive; negative | Test System: AMES SALMONELLA TYPHIMURIUM, Strain/Indicator: TA1537, Metabolic Activation: NONE, Method: STANDARD PLATE inactive; negative | Test System: AMES SALMONELLA TYPHIMURIUM, Strain/Indicator: TA1537, Metabolic Activation: RAT, LIVER, S-9, AROCLOR 1254, Method: STANDARD PLATE inactive; negative | Test System: E. COLI, Strain/Indicator: WP2 UVRA, Metabolic Activation: HAMSTER, LIVER, S-9, AROCLOR 1254, Method: STANDARD PLATE inactive; negative | Test System: E. COLI, Strain/Indicator: WP2 UVRA, Metabolic Activation: HAMSTER, LIVER, S-9, Method: STANDARD PLATE inactive; negative | Test System: E. COLI, Strain/Indicator: WP2 UVRA, Metabolic Activation: MOUSE, LIVER, S-9, AROCLOR 1254, Method: STANDARD PLATE inactive; negative | Test System: E. COLI, Strain/Indicator: WP2 UVRA, Metabolic Activation: MOUSE, LIVER, S-9, Method: STANDARD PLATE inactive; negative | Test System: E. COLI, Strain/Indicator: WP2 UVRA, Metabolic Activation: NONE, Method: STANDARD PLATE inactive; negative | Test System: E. COLI, Strain/Indicator: WP2 UVRA, Metabolic Activation: RAT, LIVER, S-9, AROCLOR 1254, Method: STANDARD PLATE inactive; negative | Test System: E. COLI, Strain/Indicator: WP2 UVRA, Metabolic Activation: RAT, LIVER, S-9, Method: STANDARD PLATE inactive; negative | Test System: UDS RAT HEPATOCYTES, Strain/Indicator: BROMODEOXYURIDINE INCORP, Metabolic Activation: NONE, Method: FLOW CYTOMETRIC ANALYSIS inactive; negative

CCCN(CCC)CCc1cccc2[nH]c3c(C)ccc(C)c3c12
inactive: [1] inactive; negative | [3] inactive; negative
active: Test System: AMES SALMONELLA TYPHIMURIUM, Strain/Indicator: TA98, Metabolic Activation: RAT, LIVER, S-9, PHENOBARBITAL AND 5,6-BENZOFLAVONE, Method: STANDARD PLATE active; positive | Test System: AMES SALMONELLA TYPHIMURIUM, Strain/Indicator: TA100, Metabolic Activation: RAT, LIVER, S-9, PHENOBARBITAL AND 5,6-BENZOFLAVONE, Method: STANDARD PLATE active; positive | Test System: UDS HUMAN HEPATOCYTES, Strain/Indicator: THY INCORP, Metabolic Activation: NONE, Method: IN VITRO active; positive | Test System: UDS RAT HEPATOCYTES, Strain/Indicator: THY INCORP, Metabolic Activation: NONE, Method: IN VIVO-IN VITRO active; positive

COc1ccc2c(c1)[C@H]1CCCC[C@@H]1[C@H]1O[C@@H]21
inactive: [1] inactive; negative | [3] inactive; negative

Nc1cc(Cl)c(Cl)c(Cl)c1
inactive: [1] inactive; negative | [2] inactive; negative | [3] inactive; negative | [4] inactive; negative
